40 molecules from patent US11773085B2 (Foghorn Therapeutics Inc., priority 2018, dated 2023) can be followed below.

What is called IC50 is the concentration at which inhibition is half-maximal. A high value points to weaker potency in that assay.

Some results are limits rather than exact numbers.

The target in this experiment is BRD9 bromodomain (Homo sapiens (Human), UniProt Q9H8M2). Briefly: BRD9 bromodomain TR-FRET competition binding assay. The conditions noted are these: 3 nM Flag-BRD9, 3.75 nM biotinylated ligand, 90 minutes at room temperature. The procedure:
Cleaved His tag was removed by purification.
A mixture of biotinylated-ligand and SureLight™ Allophycocyanin-Streptavidin (APC-SA, PerkinElmer AD0201) in 50 mM HEPES (pH 7.4), 50 mM NaCl, 1 mM TCEP (pH 7), 0.01% (v/v) Tween-20, 0.01% (w/v) bovine serum albumin was added to a white 384-well PerkinElmer Proxiplate Plus plate. DMSO or 3-fold serially diluted compounds were then added to the Proxiplate followed by addition of Flag-BRD9. After a 10 minute incubation at room temperature, Eu-W1024 anti-FLAG (PerkinElmer, AD0273) was added.
Regarding `CCOC(=O)Nc1cc(-c2cc(OC)c(CN(C)C)c(OC)c2)cn(C)c1=O` [Compound B32], the IC50 is 10 to 100 nM.
In turn, `CN(Cc1ccccc1)C(=O)c1cn(C)c(=O)c2[nH]ncc12` [Compound B7] returned an IC50 of over 1000 nM.
As to `Cn1cc(C(=O)NCc2ccccc2)c2cn[nH]c2c1=O` [Compound B5], the IC50 was over 1000 nM.
The molecule `CNCc1ccc(-c2cn(C)c(=O)c3[nH]ccc23)cc1` [Compound B14] showed an IC50 of 10 to 100 nM.
As to `COc1cc(-c2cn(C)c(=O)c3cnccc23)cc(OC)c1CN1CC[C@H]1C(=O)O` [Compound B45, (2S)-1-[[2,6-dimethoxy-4-(2-methyl-1-oxo-2,7-naphthyridin-4-yl)phenyl]methyl] azetidine-2-carboxylic acid], the IC50 lay in the range of 10 to 100 nM.
The molecule `COc1cc(-c2cn(C)c(=O)c3cnccc23)cc(OC)c1CN1CC(C(=O)NCCCCCCCCNc2ccccc2)C1` [Compound B44, 1-[[2,6-dimethoxy-4-(2-methyl-1-oxo-1,2-dihydro-2,7-naphthyridin-4-yl)phenyl]methyl]-N-[8-(phenylamino)octyl]azetidine-3-carboxamide] registered a 50% inhibitory concentration (IC50) of under 10 nM.
Molecule `Cn1cc(C(=O)Nc2ccccc2)c2cn[nH]c2c1=O` [Compound B8] showed an IC50 of over 1000 nM.
Turning to `COc1cc(-c2cn(C)c(=O)c3[nH]cnc23)cc(OC)c1CN(C)C` [Compound B47, 7-[4-[(dimethylamino)methyl]-3,5-dimethoxyphenyl]-5-methyl-3H-imidazo[4,5-c]pyridin-4-one formic acid], the IC50 was in the range of 10 to 100 nM.
`COc1cc(-c2cc(N)c(=O)n(C)c2)cc(OC)c1CN(C)C` [Compound B28, 3-amino-5-(4-((dimethylamino)methyl)-3,5-dimethoxyphenyl)-1-methylpyridin-2(1H)-one] registered an IC50 of 10 to 100 nM.
For `C/C=C/Cn1cc(-c2ccc(CNC)c(C#N)c2)c2cc(C)[nH]c2c1=O` [Compound B15], the IC50 lay within 10 to 100 nM.
The molecule `CC(=O)c1cc(-c2cccc3nccn23)c2cc(N3CCN(C)CC3)ccn12` [Compound B17, 1-(1-[imidazo[1,2-a]pyridin-5-yl]-7-(4-methylpiperazin-1-yl)indolizin-3-yl)ethan-1-one] yielded an IC50 of 100 to 1000 nM.
Take `CCN(C)C(=O)c1cn(C)c(=O)c2[nH]ncc12` [Compound B11]: the IC50 was over 1000 nM.
Consider `COc1cc(-c2cn(C)c(=O)c3cc(-c4nc5ccncc5[nH]4)ccc23)cc(OC)c1CN(C)C` [Compound B64, 4-[4-[(dimethylamino)methyl]-3,5-dimethoxyphenyl]-7-[1H-imidazo[4,5-c]pyridin-2-yl]-2-methylisoquinolin-1-one], for which the IC50 fell in the range of 10 to 100 nM.
Regarding `CCNC(=O)c1cn(C)c(=O)c2[nH]ncc12` [Compound B6], the IC50 is over 1000 nM.
For `COc1cc(-c2cn(C)c(=O)c3cnccc23)cc(OC)c1CN(C)S(C)(=O)=O` [Compound B38, N-[[2,6-dimethoxy-4-(2-methyl-1-oxo-2,7-naphthyridin-4-yl)phenyl]methyl]-N-methylmethanesulfonamide] the value was under 10 nM.
Take `CCCn1cc(C(=O)NCc2ccccc2)c2cn[nH]c2c1=O` [Compound B10]: the IC50 is over 1000 nM.
`CSc1cc(-c2cn(C)c(=O)c3cnccc23)ccc1CN(C)C` [Compound B36, 4-[4-[(dimethylamino)methyl]-3-(methylsulfanyl)phenyl]-2-methyl-1,2-dihydro-2,7-naphthyridin-1-one] gave an IC50 of 10 to 100 nM.
With `COc1cc(/C=C/c2c(C)noc2C)cc(OC)c1CN(C)C` [Compound B68], the IC50 was over 1000 nM.
Molecule `COc1cc(-c2cn(C)c(=O)c3ccc(-c4nc5cnccc5[nH]4)cc23)cc(OC)c1CN(C)C` [Compound B65, 4-(4-((dimethylamino)methyl)-3,5-dimethoxyphenyl)-6-(1H-imidazo[4,5-c]pyridin-2-yl)-2-methylisoquinolin-1(2H)-one] displayed an IC50 of 10 to 100 nM.
`CCOC(=O)Nc1c(C)c(-c2cc(OC)c(CN(C)C)c(OC)c2)cn(C)c1=O` [Compound B42, ethyl N-(5-[4-[(dimethylamino)methyl]-3,5-dimethoxyphenyl]-1,4-dimethyl-2-oxo-1,2-dihydropyridin-3-yl)carbamate] gave an IC50 of over 1000 nM.
With `COc1cc(-c2cn(C)c(=O)c3[nH]ncc23)cc(OC)c1CN(C)C` [Compound B43, 4-(4-((dimethyllamino)methyl)-3,5-dimethoxyphenyl)-6-methyl-1,6-dihydro-7H-pyrazolo[3,4-c]pyridin-7-one], the IC50 is under 10 nM.
For `CC(=O)c1cc(-c2cccc3nccn23)c2cc(N3CCNCC3)ccn12` [Compound B19, 1-(1-[imidazo[1,2-a]pyridin-5-yl]-7-(piperazin-1-yl)indolizin-3-yl)ethan-1-one] the value was 100 to 1000 nM; for `CNC(=O)[C@@H]1CCN1Cc1c(OC)cc(-c2cn(C)c(=O)c3cnccc23)cc1OC` [Compound B56, (2S)-1-[[2,6-dimethoxy-4-(2-methyl-1-oxo-2,7-naphthyridin-4-yl)phenyl]methyl]-N-methylazetidine-2-carboxamide], 10 to 100 nM; for `CN(C)Cc1ccc(-c2cn(C)c(=O)c3cnccc23)cc1S(C)(=O)=O` [Compound B37, 4-[4-[(dimethylamino)methyl]-3-methanesulfonylphenyl]-2-methyl-2,7-naphthyridin-1-one], 100 to 1000 nM.
As to `COc1cc(-c2cn(C)c(=O)c3cnccc23)cc(OC)c1CN(C)S(=O)(=O)C1CC1` [Compound B39, N-[[2,6-dimethoxy-4-(2-methy-1-oxo-2,7-naphthyridin-4-yl)phenyl]methyl]-N-methyl cyclopropanesulfonamide], the IC50 was under 10 nM.
Molecule `CC(C)n1cc(C(=O)NCc2ccccc2)c2cn[nH]c2c1=O` [Compound B12] gave an IC50 of over 1000 nM.
Take `CNCc1c(OC)cc(-c2cn(C3CC3)c(=O)c3cnccc23)cc1OC` [Compound B18, 2-cyclopropyl-4-[3,5-dimethoxy-4-[(methylamino)methyl]phenyl]-2,7-naphthyridin-1-one]: the IC50 lay in the range of 10 to 100 nM.
`COc1cc(-c2cn(C)c(=O)c3cnccc23)cc(OC)c1CN(C)S(=O)(=O)C(C)C` [Compound B49, N-[[2,6-dimethoxy-4-(2-methyl-1-oxo-2,7-naphthyridin-4-yl)phenyl]methyl]-N-methyl propane-2-sulfonamide] returned a half-maximal inhibitory concentration (IC50) of 10 to 100 nM.
Molecule `CNC(=O)C1CN(Cc2c(OC)cc(-c3cn(C)c(=O)c4cnccc34)cc2OC)C1` [Compound B34, 1-[[2,6-dimethoxy-4-(2-methyl-1-oxo-1,2-dihydro-2,7-naphthyridin-4-yl)phenyl]methyl]-N-methylazetidine-3-carboxamide formic acid] yielded an IC50 of under 10 nM.
Consider `COc1cc(-c2cc(NC(=O)N(C)C)c3nncn3c2)cc(OC)c1CN(C)C` [Compound B58, 1-(6-[4-[(dimethylamino)methyl]-3,5-dimethoxyphenyl]-[1,2,4]triazolo[4,3-a]pyridin-8-yl)-3,3-dimethylurea], for which the IC50 was over 1000 nM.
In turn, `COc1cc(-c2cc(NC(C)=O)c3nnc(C)n3c2)cc(OC)c1CN(C)C` [Compound B60, N-(6-[4-[(dimethylamino)methyl]-3,5-dimethoxyphenyl]-3-methyl-[1,2,4]triazolo[4,3-a]pyridin-8-yl)acetamide] registered a half-inhibitory concentration (IC50) of 10 to 100 nM.
Turning to `COc1cc(-c2nn(C)c(=O)c3cnccc23)cc(OC)c1CN(C)C` [Compound B62, 1-(4-((dimethylamino)methyl)-3,5-dimethoxyphenyl)-3-methylpyrido[3,4-d]pyridazin-4(3H)-one 2,2,2-trifluoroacetate], the IC50 was 10 to 100 nM.
Molecule `COc1cc(-c2cn(C3CC3)c(=O)c3cnccc23)cc(OC)c1CN(C)C` [Compound B22, 2-cyclopropyl-4-[4-[(dimethylamino)methyl]-3,5-dimethoxyphenyl]-2,7-naphthyridin-1-one] gave a concentration for half-maximal inhibition (IC50) of 10 to 100 nM.
`COc1cc(-c2cn(C)c(=O)c3cnccc23)cc(OC)c1CN(C)S(=O)(=O)CC(C)C` [Compound B40, N-[[2,6-dimethoxy-4-(2-methyl-1-oxo-2,7-naphthyridin-4-yl)phenyl]methyl]-N,2-dimethylpropane-1-sulfonamide] came in with an IC50 of under 10 nM.
The molecule `COc1cc(-c2cc(C)c(=O)n(C)c2)cc(OC)c1CN1CC(C(=O)O)C1` [Compound B48, 1-[[4-(1,5-dimethyl-6-oxopyridin-3-yl)-2,6-dimethoxyphenyl]methyl]azetidine-3-carboxylic acid] displayed an IC50 of 100 to 1000 nM.
As for `CCn1cc(C(=O)NCc2ccccc2)c2cn[nH]c2c1=O` [Compound B9], the IC50 is over 1000 nM.
`COc1cc(-c2cn(C)c(=O)c3nccnc23)cc(OC)c1CN(C)C` [Compound B33, 8-[4-[(dimethylamino)methyl]-3,5-dimethoxyphenyl]-6-methylpyrido[3,4-b]pyrazin-5-one] gave an IC50 of 100 to 1000 nM.
Take `CNC(=O)c1ccc2c(-c3cc(OC)c(CN(C)C)c(OC)c3)cn(C)c(=O)c2c1` [Compound B59, 4-[4-[(dimethylamino)methyl]-3,5-dimethoxyphenyl]-N,2-dimethyl-1-oxoisoquinoline-7-carboxamide]: the half-maximal inhibitory concentration (IC50) fell in the range of 10 to 100 nM.
With `CCC(=O)Nc1cc(-c2cc(OC)c(CN(C)C)c(OC)c2)cn(C)c1=O` [Compound B30, N-(5-[4-[(dimethylamino)methyl]-3,5-dimethoxyphenyl]-1-methyl-2-oxo-1,2-dihydropyridin-3-yl)propanamide], the IC50 lay within 100 to 1000 nM.
Molecule `COc1cc(-c2cc(NC(=O)N(C)C)c3nnc(C)n3c2)cc(OC)c1CN(C)C` [Compound B57, 1-(6-[4-[(dimethylamino)methyl]-3,5-dimethoxyphenyl]-3-methyl-[1,2,4]triazolo[4,3-a]pyridin-8-yl)-3,3-dimethylurea] returned an IC50 of over 1000 nM.
